From US20260132152A1, “SOLID FORMS OF AN ORALLY-DELIVERED BETA-LACTAMASE INHIBITOR AND USES THEREOF” (Venatorx Pharmaceuticals, Inc., priority 2019, published 2026)

Experiments:
Assay type in all cases: physicochemical
[1] = Dynamic vapor sorption (DVS) analysis, 5% RH to 95% RH and back to 5% RH at 10% RH increments
Protocol: Moisture sorption/desorption data were collected on a VTI SGA-100 Vapor Sorption Analyzer. NaCl and PVP were used as calibration standards. Samples were not dried prior to analysis. Sorption and desorption data were collected over a range from 5% to 95% RH at 10% RH increments under a nitrogen purge (RH=relative humidity). The equilibrium criterion used for analysis was less than 0.0100% weight change in 5 minutes with a maximum equilibration time of 3 hours. Data were not corrected for the initial moisture content of the samples.
DVS analysis of Compound 1-ethanolate Form A was conducted from 5% relative humidity (RH) to 95% RH and back to 5% RH at 10% RH increments (FIG. 7). […] A loss of 1.8 wt % was observed between 55% RH and 65% RH possibly due to water displacing ethanol. After 65% RH, the sample gained 3.8 wt % between 65% RH and 95% RH. […] Weight loss (˜7.6 wt %) was observed between 95% RH and 5% RH (i.e., desorption). After DVS analysis, it was noted that the sample had deliquesced.
DVS analysis of Compound 1-ethanolate Form B (with minor Form A) was conducted from 5% RH to 95% RH and back to 5% RH at 10% RH increments (FIG. 12). The DVS isotherm of Form B is qualitatively similar to that of Form A. Form B lost 0.2 wt % upon equilibration at ˜5% RH. […] A weight loss of 1.1% was observed between 45% RH and 55% RH, possibly due to the displacement of the ethanol with water. After 55% RH, the sample gained 3.3 wt % between 55% RH and 95% RH. […] Weight loss (˜5.8 w1%) was observed during desorption from 95% RH to 5% RH.

[2] = Separate DVS analysis with stepped increase in relative humidity, 0% RH to 60% RH, 4 h per step, then XRPD
Protocol: A second set of DVS experiments were conducted using a stepped method from 0% RH to 60% RH with steps of 10% RH and four hours of equilibration at each humidity value. […] The samples were placed on an aluminum holder and allowed to equilibrate at 0% RH before starting the following predefined humidity program; hold for 4 h at 0% RH, increase humidity by a step of 10% RH, hold for 4 h. repeat the above two steps five times until a value of 60% RH has been reached. The samples were then analyzed for crystallinity using the second set of XRPD conditions.

[3] = Mass spectrometric analysis of conversion of the ethanolate to Compound 1 in water; settings: in the presence of water, high-resolution MS
Protocol: High resolution mass spectra from 50 to 3000 Da were collected with a Bruker Maxis —Plus QTOF mass spectrometer using an electrospray ionization source. The instrument was controlled and data analyzed using Bruker Compass v.4.4 software. The mass spectrometer was calibrated immediately prior to analyses and was operated in positive ionization mode using an Electrospray Ionization (ESI) source. Samples were prepared by dilution in absolute ethanol (without denaturants) or HPLC grade water prior to direct infusion into the ion source.
Mass spectrometric (MS) analyses were performed to confirm the structure of Compound 1-ethanolate Form A, and evaluate the ability of EtOH to dissociate from Compound 1-ethanolate in water. Compound 1-ethanolate Form A, and an amorphous preparation of ((2-ethylbutanoyl)oxy)methyl (R)-2-hydroxy-3-propionamido-3,4-dihydro-2H-benzo[e][1,2]oxaborinine-8-carboxylate were diluted in absolute EtOH or water and analyzed by high-resolution mass spectrometry. A sample of amorphous ((2-ethylbutanoyl)oxy)methyl (R)-2-hydroxy-3-propionamido-3.4-dihydro-2H-benzo[e]|1.2]oxaborinine-8-carboxylate, dissolved in absolute EtOH, was spiked with water prior to analysis. […] The exact mass observed for sodiated Compound 1-ethanolate was 442.2007 (difference=1.4 ppm vs. theoretical: C21H30BNO7Na: 442.2013 Da). […]

| Compound | State of sample after DVS analysis ([1]; after 5-95-5% RH cycle) | Weight loss in DVS (desorption) ([1]; desorption from 95% RH to 5% RH) | Weight loss upon equilibration ([1]; equilibration at ~5% RH) | Weight gain in DVS ([1]; sorption, between 5% RH and 45% RH) | Weight loss in DVS ([1]; sorption, between 45% RH and 55% RH, possibly displacement of ethanol with water) | Weight gain in DVS ([1]; sorption, between 55% RH and 95% RH) | Mass change in stepped DVS ([2]; at humidities higher than 40% RH, loss of ethanol from the boronate ester complex) | Mass increase in stepped DVS ([2]; from 0% RH to 40% RH) | Retention of crystal structure (XRPD after stepped DVS) ([2]; up to 60% r.h.) | Conversion to the free boronic acid (Compound 1) [3] |
| --- | --- | --- | --- | --- | --- | --- | --- | --- | --- | --- |
| CCOB1Oc2c(cccc2C(=O)OCOC(=O)C(CC)CC)C[C@@H]1NC(=O)CC [Compound 1-ethanolate Form B, ((2-ethylbutanoyl)oxy)methyl (R)-2-ethoxy-3-propionamido-3,4-dihydro-2H-benzo[e][1,2]oxaborinine-8-carboxylate] | appeared to have deliquesced | ~5.8 w1% | 0.2 wt % | ~0.5 wt % | 1.1% | 3.3 wt % | a decrease in mass was observed | 0.4 wt, -% | retained its predominant crystal structure for at least four hours |  |
| CCOB1Oc2c(cccc2C(=O)OCOC(=O)C(CC)CC)C[C@@H]1NC(=O)CC [Compound 1-ethanolate, ((2-ethylbutanoyl)oxy)methyl (R)-2-ethoxy-3-propionamido-3,4-dihydro-2H-benzo[e][1,2]oxaborinine-8-carboxylate] |  |  |  |  |  |  |  |  |  | rapidly converted to the free boronic acid |
